In patent publication US7052850B2, “Isolated human EDG-4 receptor” (priority 1997, dated 2006):

Columns and labels:
Format in all cases: cell-based
human EDG-4 [1] = molecular target: T1, human EDG-4 (Homo sapiens, UniProt O95136, F273L/I205V); test: NF-κB luciferase reporter in 293-EBNA cells, human EDG-4; conditions: Assay 3; pC3-hedg4#36; 3 μM; 6 hours
T1 construct: a 1059 bp open reading frame (excluding the stop codon) corresponding to the complete human edg-4 coding region; expressed in transfected cells; host or cells: 293-EBNA
Protocol: (§2) The protocol described in Example 11 for Assay 1 was allowed except for the following changes: • 1) 100 mm plates of 293-EBNA ith a confluency of ˜80% were used for transfection, • 2) SRE Cotransfection: 0.5 μg of 2XSREtk-p4Luc-zeo reporter DNA and 3.5 μg pcDNA3, EDG-1, EDG-3 pC3-hE3P2, different from the clone used in Assay 2 of Example 11) or the newly cloned human EDG-4 (pC3-hedg4#36); NF-κB Cotransfection: 2 μg 6XNFκBtk-p4LUc-zeo reporter DNA and 2.0 μg pcDNA3, EDG-1, EDG-3 (pC3-hE3HP2), or EDG-4 (pC3-hedg4#36). Expression plasmid and reporter plasmid DNA samples were combined and diluted in 750 μl of DMEM/F12 (serum free media) and 20 μl Plus Reagent (Lipofectamine Plus Kit, Life Technologies Cat. 109640-13), and incubated at room temperature for 15 min. • 3) 30 μl Lipofectamine Reagent (Lipofectamine Plus Kit) was diluted in 750 μl DMEM/F12. The diluted Lipofectamine was then combined with the DNA/Plus mixture and incubated at room temperature for 15 min. • 4) The 293-EBNA plates were washed once with PBS and 5 ml DMEM/F12 was added to each plate. • 5) DNA/Plus/Lipofectamine mixture was added to each plate of 293-EBNA cells. […]

pcDNA3-transfected cells = test: Calcium microfluorimetry (fura-2), pcDNA3-transfected 293-EBNA cells; conditions: 2 μM S1P
Protocol: Transfections were carried out with EDG receptors in 293-EBNA cells as described above, except that no reporter gene vector was included in the DNA mix. Two days after transfection, cells were harvested by trypsinization and plated at a density of 200,000 cells onto poly-D-lysine-coated coverslips in 100 μl of medium containing 0.5% FBS. After briefly allowing cell attachment to take place, 2 ml of medium without FBS was added and the cells were incubated overnight. The next day, cells were loaded with 5 μM fura-2 AM ester (Molecular Probes) for 60 min at RT, then washed and used for calcium microfluorimetry. […] Treatments were applied using a gravity-fed perfusion apparatus. Fluorescence emission was continuously monitored and recorded with PTI 2.060a software and analyzed with Sigma Plot software. Intracellular calcium concentrations were calculated by interpolation on a ratiometric fluorescence curve generated from fura-2 fluorescence in a calcium dilution series.

EDG-7 [2] = test: SRE reporter, EDG-7
human EDG-4 [3] = molecular target: T1, human EDG-4; test: Relative potency and efficacy of agonists, luciferase (SRE) reporter in 293-EBNA cells expressing recombinant human EDG-4; conditions: for Rank (EMax): rank of efficacy
Protocol: Transfection of EDG-4, expression, pretreatment and treatment of 293-EBNA cells expressing recombinant human EDG-4 was carried out essentially as described in “Example 11. […] Results were tabulated in Microsoft Excel, and analyzed with GraphPad Prism sotfware. […] The luciferase response was expressed as fold response, after subtracting any endogenous response in pcDNA3-transfected cells at a given concentration of compound.

EDG-7 [4] = test: NF-κB reporter, EDG-7
rat EDG-4 = rat EDG-4 (Rattus norvegicus, UniProt P47752); test: NF-κB-tk-p4Luc luciferase reporter in 293-EBNA cells, rat EDG-4; design: transient transfection with a eukaryotic expression vector expressing full-length rat edg-4 cDNA; expressed in transfected cells; host or cells: 293-EBNA
Text: First, the NF-κB response element was reconstructed in a new reporter construct (p4Luc) suitable for stable maintenance as an episome in primate cells. […] The p4-Luc reporter used the backbone of pREP4 (Invitrogen; Cat. V004-50), which contains the EBV orgin of replicaiton (EBVoni), as well as the EBNA-1 viral antigen required to maintain EBVoti containing plasmids as stable episoms in primate cells, and a prokayotic selection marker. A dominant eukaryotic selection marker for zeocin resistance was substituted for expression in pREP4. The promoter of pREP4 was then excised and replaced with a multi-cloning site for introduction of promoter/enhancer inserts. The NF-κB inser of the previous CAT reporter was subcloned into this site and all cloning junctions were sequenced to verify the structure of the plasmid, called NF-κB-tk-p4Luc.
• 1) 150 mm plates of 293-EBNA obtained from Invitrogen (Cat. R620-07) with a confluency of 18 80% were used for transfection. • 2) 6.6 μg NF-κB-tk-p4Luc reporter DNA and 6.6 μg of pC3-redg4 (expressing rat EDG-4), or pcDNA3 DNA was diluted in 500 μl OPTI-MEM (Gibco; Cat. 31985-062) • 3) 96.8 μl Lipofectamine (Gibco; Cat. 18324-020) was diluted in 500 μl of OPTI-MEM. • 4) The 2 solutions were mixed gently and the tube was incubated for 30 min at room temperature. • 5) The 293-EBNA plates were washed once with PBS and 13 ml OPTI-MEM was added to each plate, • 6) 6 ml OPTI-UMM was added to each transfection tube and this was added to a plate of 293EBNA cells. The plates were left for 4 hrs at 37° C. in a 5% CO2 incubator. • 7) After 4 his, the media was removed and replaced with frest 10% FBS media. Day 2: • 1) Transfected cells were washed, typsinized with 1× tryspin, resuspended in 10 ml media and counted. • 2) 0.02×10 ^6 cells were plated per well of a 96-well Blackview plate coated with polyD-lysine. No cells were plated in the outside wells of the 96-well plate. Two 96-well plates were seeded for each transfection. Day 3: • 1) Cells were washed with PBS and 140 μl serum-free media (SFM) added to each well. Plates were incubated in 37° C. incubator for 6 hrs. • 2) After 6 hrs, media was removed and cells treated with compounds diluted in 0.5% FBS media (140 μl added to each well).
Day 4 Luciferase Assay • 1) Luclite kit (Packard; Cat. 6016911) was used for luciferase assay. All reagents were brought to room temperature before use. • 2) Supernatant was transferred to a new 96-well plate and stored at −20 C. for rupture IL-8 measurement. • 3) 50 μl 0.5 M HEPES pH 7.8 buffer (1 mM MgCl21 mM CaCl2) was addeded to all wells of 96-well plate. Black adhesive backing (polyfitronics) was aligned to the bottom of the viewplate. • 4) Luclite substrate was made up by adding 10 ml substate diluent to 1 vial lyophilized substrate. Reconstituted substrate was kept under a dark container. 50 μl substrate was added to each well. • 5) A clear adhesive plate sealer was adjusted on to the viewplate and sealer rubbed over the plate with a Kimwipe. The plate was shaken on a plate shaker at 500 rpm for 5 seconds right side up and then upside down. A stop plate was placed on top of the blackview plate to keep it in the dark. • 6) Plates were incubated at room temperature for 30 min. • 7) After incubation, plates were counted in a 12 detector Packard Top Count on a program without dark delay.

human EDG-3 = test: NF-κB luciferase reporter in 293-EBNA cells, human EDG-3; conditions: for NF-κB response: original human EDG-3 clone (Assay 2)
Protocol: Expression plasmid and reporter plasmid DNA samples were combined and diluted in 750 μl of DMEM/F12 (serum free media) and 20 μl Plus Reagent (Lipofectamine Plus Kit, Life Technologies Cat. 109640-13), and incubated at room temperature for 15 min. • 3) 30 μl Lipofectamine Reagent (Lipofectamine Plus Kit) was diluted in 750 μl DMEM/F12. The diluted Lipofectamine was then combined with the DNA/Plus mixture and incubated at room temperature for 15 min. • 4) The 293-EBNA plates were washed once with PBS and 5 ml DMEM/F12 was added to each plate. • 5) DNA/Plus/Lipofectamine mixture was added to each plate of 293-EBNA cells. The plates were left for 3 hr at 37° C. in a 5% CO2 incubator. • 6) The transfection medium was replaced with serum-free DMEM/F12 for cells transfected with 2XSREtk-p4Luc-zeo reporter DNA and with DMEM/F12 plus 10% FBS for cells transfected with 6XNFκBtk-p4Luc-zeo reporter DNA. • Day 2. • 2) Transfected cells were harvested by trypsinization and 50,000 cells per well were plated in 96-well Blackview plates coated with poly D-lysine Becton Dickinson Labware, Cat. 40640). […]

EDG-1 = EDG-1 (Homo sapiens, UniProt P21453); test: NF-κB luciferase reporter in 293-EBNA cells, EDG-1; conditions: Assay 3; 3 μM; 6 hours
Protocol: as §2

EDG-6 = molecular target: T2, EDG-6 (Homo sapiens, UniProt Q9HBW0); test: AP-1 reporter in 293-EBNA cells, EDG-6; conditions: 10 μM LPA
T2 construct: expressed in transfected cells; host or cells: 293-EBNA
Text: (§1) LPA, like S1P, is abundant in serum, but not plasma. Moreover, LPA is produced as a consequence of phospholipase A2 with or without the contribution of phospholipase D (depending on the phospholipid substrate). […] To date we have identified three subtypes of edg receptors that respond to LPA as an agonist. These are EDG-2, […] (referred to also as LPA1, LPA2 and LPA3, respectively (Chun, J, Contos, JJA and Munroe, DG. 1998. A growing family of receptor genes for lysophophatidid acid (LPA) and other lyso-phospholipids. Cell Biochem Biophys (in press)). The EDG-5 receptor is set out in co-pending U.S. application Ser. No. 08/997,803 to MUNROE et al., incorporated herein to reference and the amino acid sequence and cDNA sequence for the EDG-6 receptor is set out in FIGS. 21 and 22, respectively. To determine whether these receptors might mediate inflammatory responses, each was cotransfected separately with SRE, NF-κB or AP-1 reporter genes. […] This transcription factor, like NF-κB has been implicated in inflammatory and neoplastic signal transduction, though the gene targets of its action are largely distinct from those of NF-κB (Adcock I M. 1997. Transcription factors as activators of gene transcription; AP-1 and NF-κB. Monaldi Arch Chest Dis 52:178–186. Review). […]

EDG-2 = molecular target: T3, EDG-2 (Homo sapiens, UniProt Q92633); test: NF-κB reporter in 293-EBNA cells, EDG-2; conditions: 10 μM LPA overnight
T3 construct: expressed in transfected cells; host or cells: 293-EBNA
Text: as §1

human EDG-5 = molecular target: T4, human EDG-5 (Homo sapiens, UniProt Q9UBY5); test: NF-κB luciferase reporter in 293-EBNA cells, human EDG-5; conditions: 10 μM LPA overnight
T4 construct: expressed in transfected cells; host or cells: 293-EBNA
T4 sequence (Q9UBY5 1-353): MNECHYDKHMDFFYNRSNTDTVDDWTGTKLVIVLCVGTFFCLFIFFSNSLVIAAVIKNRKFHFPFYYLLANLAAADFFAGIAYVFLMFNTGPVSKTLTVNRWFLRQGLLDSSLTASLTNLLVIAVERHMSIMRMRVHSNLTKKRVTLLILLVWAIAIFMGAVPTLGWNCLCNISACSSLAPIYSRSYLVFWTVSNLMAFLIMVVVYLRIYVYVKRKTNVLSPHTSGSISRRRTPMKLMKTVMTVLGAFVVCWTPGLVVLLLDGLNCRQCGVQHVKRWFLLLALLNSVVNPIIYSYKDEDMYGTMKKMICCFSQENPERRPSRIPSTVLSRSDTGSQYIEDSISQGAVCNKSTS
Protocol: The above protocol for assay 1 was followed except for the following changes: • 1) 100 mm plates of 293-EBNA with a confluency of ˜80% were used for transfection. • 2) 3 μg NFκB-tk-p4Luc reporter DNA and 3 μg pC3-hedg1, pC3-hedg 3, pC3-redg4, pC3-hedg5 or pcDNA3 DNA was diluted in 240 μl OPTI-MEM (Gibco; Cat. 31985-062) • 3) 22 μl lipofectamine (Gibco; Cat. 1 8324-020) was diluted in 240 μl OPTI-MEM. • 4) The 293-EBNA plates were washed once with PBS and 7 ml OPTI-MEM was added to each plate. • 5) DNA/lipofectamine mixture was added to each plate of 293-EBNA cells. The plates were left for 4 hrs at 37° C. in a 5% CO2 incubator. Day 2: • 1) 0.01×10^6 cells were plated per well of 96-well Blackview plate coated with polyD-lysine. No cells were plated in the outside wells of the 96-well plate. Day 3: The following treatments were used for all transections:
293-EBNA cells were grown, lipofected in monolayer cultures, and pretreated as described above for Example 11, assay #1, except that NF-κB and AP-1 reporter-transfected cells were preteated for 6 hr in medium containing 0.5% […], then treated overnight in the same medium with or without 10 μM LPA.

T1 sequence (O95136 whole entry I205V/F273L): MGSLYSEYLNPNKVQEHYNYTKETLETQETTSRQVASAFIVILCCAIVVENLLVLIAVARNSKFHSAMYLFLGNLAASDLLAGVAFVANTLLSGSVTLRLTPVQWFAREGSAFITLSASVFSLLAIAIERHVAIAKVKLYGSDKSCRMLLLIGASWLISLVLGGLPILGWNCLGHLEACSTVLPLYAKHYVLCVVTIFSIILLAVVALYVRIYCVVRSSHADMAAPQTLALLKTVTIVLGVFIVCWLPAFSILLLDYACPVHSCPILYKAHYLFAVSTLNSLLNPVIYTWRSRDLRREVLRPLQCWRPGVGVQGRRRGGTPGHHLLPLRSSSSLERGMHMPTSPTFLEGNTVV
Chain of rat EDG-4 (P47752 whole entry): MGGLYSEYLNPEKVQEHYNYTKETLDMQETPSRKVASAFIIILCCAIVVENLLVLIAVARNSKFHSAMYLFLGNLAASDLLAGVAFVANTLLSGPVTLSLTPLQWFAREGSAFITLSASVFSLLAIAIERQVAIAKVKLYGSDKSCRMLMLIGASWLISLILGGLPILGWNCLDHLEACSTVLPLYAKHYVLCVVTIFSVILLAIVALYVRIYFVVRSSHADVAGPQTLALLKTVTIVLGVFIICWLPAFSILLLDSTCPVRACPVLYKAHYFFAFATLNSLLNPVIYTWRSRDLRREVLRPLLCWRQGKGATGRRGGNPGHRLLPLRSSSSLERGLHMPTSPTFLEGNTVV
T3 sequence (Q92633 whole entry): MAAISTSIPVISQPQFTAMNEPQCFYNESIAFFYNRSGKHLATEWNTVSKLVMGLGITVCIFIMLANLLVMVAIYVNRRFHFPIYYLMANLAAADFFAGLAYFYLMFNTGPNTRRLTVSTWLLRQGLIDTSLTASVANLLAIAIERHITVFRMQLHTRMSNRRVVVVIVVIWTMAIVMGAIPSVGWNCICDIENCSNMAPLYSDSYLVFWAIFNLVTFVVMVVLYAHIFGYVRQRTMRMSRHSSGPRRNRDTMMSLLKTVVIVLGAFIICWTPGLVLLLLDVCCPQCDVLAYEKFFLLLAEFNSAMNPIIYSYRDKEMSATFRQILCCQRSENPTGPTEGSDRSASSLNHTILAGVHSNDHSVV
T2 sequence (Q9HBW0 with tags, fused parts or gaps): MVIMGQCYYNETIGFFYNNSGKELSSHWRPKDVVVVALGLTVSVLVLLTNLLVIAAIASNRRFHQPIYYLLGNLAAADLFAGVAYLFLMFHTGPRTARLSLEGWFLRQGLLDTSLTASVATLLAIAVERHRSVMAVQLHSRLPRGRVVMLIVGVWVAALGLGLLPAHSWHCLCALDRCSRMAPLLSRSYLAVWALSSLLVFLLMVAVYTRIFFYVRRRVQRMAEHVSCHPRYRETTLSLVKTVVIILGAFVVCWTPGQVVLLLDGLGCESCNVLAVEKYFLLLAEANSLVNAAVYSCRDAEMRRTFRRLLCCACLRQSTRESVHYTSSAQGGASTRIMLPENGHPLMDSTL
Chain of EDG-1 (P21453 whole entry): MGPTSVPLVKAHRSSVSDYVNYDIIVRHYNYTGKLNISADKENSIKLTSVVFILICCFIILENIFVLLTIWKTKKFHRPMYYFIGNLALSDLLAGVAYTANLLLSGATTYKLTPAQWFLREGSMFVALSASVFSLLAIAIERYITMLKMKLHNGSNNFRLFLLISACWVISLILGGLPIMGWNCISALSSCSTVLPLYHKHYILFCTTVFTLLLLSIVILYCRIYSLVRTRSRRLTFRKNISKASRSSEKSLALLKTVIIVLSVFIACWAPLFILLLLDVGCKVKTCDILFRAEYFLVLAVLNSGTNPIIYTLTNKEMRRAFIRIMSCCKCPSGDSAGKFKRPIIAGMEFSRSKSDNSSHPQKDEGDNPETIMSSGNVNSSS

Molecule: CCCCCCCCCCCCC/C=C/[C@@H](O)[C@@H](N)COP(=O)(O)O [S1P, sphingosine 1-phosphate]
- induction of the NF-κB reporter gene (human EDG-4 [1]): 4.5 fold
- change in intracellular calcium (pcDNA3-transfected cells): approximately 60 nM
- SRE reporter response (EDG-7 [2]): respond through the SRE reporter
- agonist character at EDG-4 (human EDG-4 [3]): full agonists
- Emax (human EDG-4 [3]; 293-EBNA, relative efficacy, read-out: EMax (Percent)): 86.7%
- Rank (EMax) (human EDG-4 [3]): 2
- NF-κB reporter response (EDG-7 [4]): fail to signal through NF-κB reporters
- increase in luciferase activity (rat EDG-4; Assay 1, 1 μM S1P, 24 hrs): 2 fold
- increase in luciferase activity (rat EDG-4; Assay 1, 5 μM or 10 μM S1P, 24 hrs): 4–4.5 fold
- increase in luciferase activity (rat EDG-4; Assay 2, 3 μM): 3.5 fold
- NF-κB response (human EDG-3): did not produce a NF-κB response
- luciferase activity (NF-κB reporter) (EDG-1): no increase in luciferase activity

Molecule: CCCCCCCCCCCCC/C=C/[C@@H](O)[C@@H](N)COP(=O)([O-])OCC[N+](C)(C)C [SPC, sphingosylphosphorylcholine]
- induction of the NF-κB reporter gene (human EDG-4 [1]): 9 fold
- agonist character at EDG-4 (human EDG-4 [3]): full agonists
- Rank (EMax) (human EDG-4 [3]): 1
- EMax (Percent) (human EDG-4 [3]; relative efficacy): 100%
- induction of NF-κB reporter (rat EDG-4; Assay 1, 24 hrs): induced the reporter gene
- increase in luciferase activity (rat EDG-4; Assay 2, 3 μM): 4 fold
- induction of the NF-κB reporter gene compared to untreated controls (human EDG-3; Assay 3, pancreas EDG-3 clone, 3 μM): about 8 fold
- NF-κB response (human EDG-3): did not produce a NF-κB response

Molecule: lysophosphatidic acid [LPA]
- induction of the AP-1 reporter (EDG-6): strongly induced
- activation of the NF-κB reporter (EDG-2): 3–4 fold
- activation of the NF-κB reporter (human EDG-5): 3–4 fold
